Assays:
refractory neoplasms = experiment: Tumor response in patients with refractory neoplasms; assay type: in vivo, human
Procedure: Three patients with refractory neoplasms (breast, melanoma, adenocarcinoma, of unknown primary) have been enrolled and completed 1-2 cycles of arginine butyrate as a dose of 500 mg/kg/day over 6-8 hours for 10 days.
Three patients (with breast cancer, bowel cancer or Hodgkins disease) have completed two cycles of arginine butyrate at a dose of 750 mg/kg/day for 10 days. […] Otherwise, there was no other objective measures of organ progressed after treatment was topped. […] There was a further resolution of the disease during the second cycle. Disease progression was noted one month after second cycle was completed. At 1000 mg/kg/day, 3 patients have been enrolled on study.
An inter-group dose-escalation study is being conducted in patients with refractory malignancies. There are 3 patients per group with the dose levels starting at 500 mg/kg/day, and increasing by 250 mg/kg/day per group, if toxicity permits. Doses are given by 8 hour IV infusion, daily, for 5 days times 2 weeks, with weekends off, for a total of 10 days of treatment per cycle.

[1] = tested on: n-myc transcript in neuroblastoma cells; experiment: Expression of oncogene n-myc transcript; assay type: cell-based, human; details: 1 mM
EBV-TK MRNA = experiment: EBV-TK mRNA dose response experiments; assay type: cell-based; details: in vitro
Procedure: (§1) In vitro, peaks induction of EBV-TK plateaus at serum level of around 1 mM. […] Therefore, dose levels up to 2,000 mg/kg/day, were evaluated in an attempt to reach serum levels of 1 mM. Treatment cycles were of 4 week duration, with 3 weeks on treatment and one week off. Patients were given the standard dose of GCV throughout each 21 day course of arginine butyrate, starting, however, on day 0. Arginine butyrate was given by continuous IV infusion at 500 mg/kg/day for 2 days, at 1,000 mg/kg/day for 2 days, at 1,500 mg/kg/day for 2 days, and thereafter at 2,000 mg/kg/day, or as tolerated, for the rest of the 21 day course. Cycle 2 was begun on Day 29. Patients were given a complete tumor evaluation after every course with subsequent cycles emitted unless disease progressed.
In some experiments sodium was used instead of arginine to neutralize butyric acid. In dose response experiments, levels of EBV-TK MRNA plateaus at around 1 mM to 3 mM sodium butyrate, inducing levels essentially equivalent to those induced by 1 mM arginine butyrate. […] Similarly, levels of GCV above 30 μM were generally cytocidal to both to EBV+ and EBV− cell lines. Cell lines used were X50-7, a latent EBV+ B-cell lymphoma; Akata, a producer EBV+ Burkitt's lymphoma; HPB-ALL, a T-cell line; and Nalm-6, an EBV− B-cell line. […]

Gastric Carcinoma (AGS) = experiment: Differentiation of tumor cell line; assay type: cell-based, human
Procedure: The effects of arginine butyrate compounds on differentiation of several human tumor cell lines were evaluated by visual inspection and by histochemical and pathological staining:
Although HLA antigens are expressed on normal, fully differentiated cells, they are not expressed or are minimally expressed on most neoplastic cells. In this way neoplastic cells escape recognition by the cellular arm of the immune system and are able to survive.

[2] = tested on: human malignant cell lines from breast, colon, lung, prostate, ovarian and lymphoid sources; experiment: Cytotoxicity as single agent, cell death at 72 hours; assay type: cell-based; details: all concentrations tested
[3] = tested on: Human Neuroblastoma Cell Line, SK-N-MC; experiment: Proliferation of neuroblastoma cells, 4 weeks continuous exposure; assay type: cell-based; details: no treatment 1 × 10^8
Procedure: Human neuroblastoma cell line SK-N-MC was studied under different conditions. In this case, the cells were grown for 4 weeks with continuous exposure to sodium butyrate or arginine butyrate, and the cell number was quantitated at the end of this time.

[4] = Stability testing of arginine butyrate solution; assay type: physicochemical; details: solution for injection
Text: (§2) Butyric acid is a short chain fatty acid present in foods such as dairy products. Arginine is an amino acid which is commonly used in hyperalimentation solutions in hospitals throughout the country. Butyric acid was obtained from Aldrich, catalog number W-212. L-Arginine is anhydrous. Arginine was combined with butyric acid, pH 5.0-5.5, in sterile, non-pyrogenic water for injection to neutralize the fatty acid. The solution was filtered through a Millipore System at a final concentration for injection of 100 mg/ml or 25 mg/ml. Each lot was pyrogen tested and tested for sterility and purity. […] Since 10% arginine butyrate solution is hypertonic (100 mg/ml), it must be infused through a long or deep IV access to avoid peripheral venous irritation. Arginine butyrate was infused via an infusion pump. European pharmacokinetic studies of arginine butyrate given as a “slow” and 90 minute bolus of 500 mls of a 5% solution (2.5 g/M in two normal volunteers, and found a 15 minute elimination period. Plasma levels from patients with hemoglobinopathies have shown that butyric acid disappears within 5 to 15 minutes after an infusion of up to 2,000 mg/kg/day.

[5] = Clinical pharmacokinetics of butyrate infusion; assay type: in vivo, human; details: patients with β-hemoglobinopathies
Procedure: Clinical experience with butyrates have been performed in children with acute myelogenous leukemia in Israel, and in children with neuroblastoma (K. Prasad, Life Sci. 27:1351-58, 1980). […] Eleven pediatric patients and twelve adults with β-hemoglobinopathies were treated with IV arginine butyrate at a starting dose of 500 mg/kg/day for 2-7 weeks. If no side effects were noted, the rate was increased by 250 mg/kg/day to a final rate of 1500 mg/kg/day in 4 patients, and 2000 mg/kg/day in 2 patients. […] This rise in BUN returned to normal within 12 hours of discontinuation of drug, and is thought to be secondary to effect of arginine upon ureagenesis. […] Peak serum levels of butyrate ranged between 0.04-0.05 mM, and butyrate was not detectable 15 minutes after infusion was discontinued. Plasma arginine levels were also rapidly cleared, with a T1/2 of 15 minutes, and baseline arginine levels were reached within 12 hours after discontinuation of infusion.
as §2
as §1, with “Patients were given a complete tumor evaluation after every course with subsequent cycles emitted unless disease progressed.” left out

[6] = tested on: EBV+ and EBV− cell lines (X50-7, Akata, HPB-ALL, Nalm-6); experiment: Growth of EBV+ and EBV− cell lines; assay type: cell-based, human
Text: In some experiments sodium was used instead of arginine to neutralize butyric acid. […] Cell lines used were X50-7, a latent EBV+ B-cell lymphoma; Akata, a producer EBV+ Burkitt's lymphoma; HPB-ALL, a T-cell line; and Nalm-6, an EBV− B-cell line. Growth curves for X50-7 cells in different concentrations of sodium butyrate are shown in FIG. 8b and the growth curves for HPB-ALL cells in different concentrations of sodium butyrate are shown in FIG. 8c.

arginine butyrate
objective tumor responses (refractory neoplasms; 500 mg/kg/day, three patients, 1-2 cycles): No objective tumor responses were noted | stable disease (refractory neoplasms; 750 mg/kg/day, after two cycles): Two patients had stable disease after two cycles | partial response, reduction in tumor area (refractory neoplasms; 750 mg/kg/day, patient with Hodgkin's disease, after first cycle): > 80% | expression of n-myc transcript [1]: decreased approximately Mold | level at which peak induction of EBV-TK plateaus (EBV-TK MRNA): around 1 mM | differentiation marker expression (Gastric Carcinoma (AGS)): began to express mucin | concentrations at which cell death at 72 hours was seen [2]: 0.1 to 5.0 mM | Cell Number ([3]; 0.05 mM): 1 × 10^5 | Cell Number ([3]; 1.0 mM): <1 × 10 ^3 | stability in glass containers [4]: up to 404 days | Plasma arginine T1/2 ([5]; IV): 15 min | time after discontinuation of infusion at which butyrate was not detectable ([5]; IV): 15 min | time to baseline arginine levels after discontinuation of infusion ([5]; IV): ≤ 12 h | Peak serum levels of butyrate ([5]; IV 500 up to 2000 mg/kg/day): 0.04 to 0.05 mM | effect on cell growth ([6]; 1 mM): cytostatic to some cell lines and permitted normal cell growth in others | effect on cell growth ([6]; 2 mM and 3 mM): cytocidal to most EBV+ and EBV− cell lines
